Measured values from paper PMC10257291, “Biological activities of extracts and compounds from Thai Kae-Lae (Maclura cochinchinensis (Lour.) Corner)” (BMC Complementary Medicine and Therapies, 2023).
Entries after “also recorded” stand apart in the source; their conditions may differ.

Columns and labels:
DPPH assay = settings: compared in words
Procedure: The DPPH^• scavenging activity of crude fractional extracts and their biological active compounds were investigated using DPPH assay. Briefly, the sample (20 μL) was mixed with 167 μM DPPH solution (180 μL). The combined mixture was incubated at room temperature (25 °C) in the dark for 30 min before assessing the UV absorbance at 520 nm with a microplate reader (Beckman CoulterDTX880, Fullerton, CA, USA). The DPPH^• scavenging activity was presented in terms of the percentage of inhibition that was calculated using the following equation: 2 %DPPH^·inhibition=A-B/A×100 A is the UV absorbance of the mixture in the absence of a sample solution, and B is the UV absorbance of the mixture in the […] of a sample solution. L-ascorbic acid served as a positive control. All experiments were conducted in triplicate.

WT1 protein [1] = assay: WT1 protein expression by Western blot in KG-1a cells; format: cell-based, human; settings: IC20 value, 48 h, vs vehicle control
Procedure: (§1) Leukaemic stem cells (KG-1a) and leukaemic cells (EoL-1 and K562) were used as cell models which overexpressed WT1 protein expression. Cells were treated with crude fractional extracts and active compounds at a 20% growth inhibition (IC20 value) of each extract. Following 48-h of incubation, cells were washed. The whole protein was extracted using RIPA buffer. The protein concentration was determined by the Pierce™ BCA Protein Assay Kit (ThermoFisher Scientific, IL, USA). Extracted protein sample at 30 − 50 μg was loaded to 12% SDS-PAGE and then transferred to PVDF membranes. The method was done as previously described. The specific protein bands were determined by Luminata™ Forte Western HRP substrate (Merck, Darmstadt, Germany) and exposed to X-ray film (Sakura, Japan). Quantity One 1-D Analysis software (Bio-Rad, USA) was used to quantify densitometry. The density values of WT1 bands were normalized to GAPDH bands.

MCF-7 cells = assay: Cell migration assay (wound healing scratch); format: cell-based, human; settings: non-toxic dose, after 24 h of wounding
Procedure: Inhibitory effect of the extracts on cell migration of MCF-7 cells was assessed by wound healing scratch assays. First, cells were plated into 24-well plates and incubated in a CO2 incubator with humidified atmosphere of 5% CO2. After reaching the confluent monolayer forms, a longitudinal wound was created by scratching using SPLTM Scar Scratcher. Then, the non-toxic dose of each extract in complete DMEM medium was added into each well and cell migration was monitored and observed under Leica DM IL LED inverted microscopy and the images of cell-free area were captured at 0, 6, 12, and 24 h after wounding, then measured using ImageJ software. The percentage of wound width was calculated by the following formula:6 Woundwidth(%)=(Cell-[…] Where “Cell-free […]” is the cell-free area at any time point of imaging while “Cell-free area0.h” is the cell-free area at the beginning of wounding.

ABTS assay = settings: compared in words
Procedure: Briefly, the sample (20 μL) was mixed with of the ABTS^•^+ solution (180 μL) that had been prepared overnight. The combined mixture was incubated at room temperature (25 °C) for 5 min before assessing the UV absorbance at 750 nm with a microplate reader (Spectrostar Nano, BMG Labtech GmbH, Ortenberg, Germany). The findings were described as Trolox equivalent antioxidant capacity (TEAC). All experiments were conducted in triplicate.

FRAP assay = settings: compared in words
Procedure: Briefly, sample (20 μL) was mixed with FRAP solution (180 μL). The combined mixture was incubated at room temperature (25 °C) in the dark for 5 min before assessing the UV absorbance was measured at 595 nm with a microplate reader (Beckman CoulterDTX880, Fullerton, CA, USA). The findings were described as equivalent concentration (EC1). L-ascorbic acid served as a positive control. All experiments were conducted in triplicate.

NO = assay: Nitric oxide measurement in LPS-stimulated RAW 264.7 cells; format: cell-based, mouse; settings: sample at IC20 value; vs dexamethasone; LPS 1 μg/mL
Procedure: Mouse monocyte macrophage RAW 264.7 cells (American Type Culture Collection, ATCCTIB-71) were stimulated with lipopolysaccharide (LPS) or phytohemagglutinin (PHA). The LPS treated RAW 264.7 cells served as a vehicle control, of which the NO production, and the secreted cytokines were defined as 100%, whereas a negative control was non-treated RAW 264.7 cells. Dexamethasone (an anti-inflammatory drug) was used as a positive control.
Briefly, 1 × 10^5 cells/well in DMEM were seeded and incubated for 24 h in a CO2 incubator set at 37 °C and 5% CO2/95% humidified air. Then cells were treated with Kae-Lae extracts or purified compounds. Following 2-h of incubation in a CO2 incubator, LPS was added to make a final concentration of 1 μg/mL. After 24 h in a CO2 incubator, the media were removed and centrifuged at 13,500 × g for 10 min. The supernatant was analysed for the level of NO using Total Nitric Oxide Assay kit, according to the manufacturer’s protocol (Invitrogen™, ThermoFisher Scientific, MA, USA). The optical density was measured at 540 nm using a multimode detector (Beckman CoulterDTX880, Fullerton, CA, USA).
NO inhibitions were calculated using the following equation:
3 %NOinhibition=A-B/A×100
A is the optical density of the mixture without the sample, while B is the optical density of the mixture with the sample. Dexamethasone was used as a positive control. […]

KG-1a cells [2] = assay: Rate of proliferation, KG-1a cells; format: cell-based, human; settings: for decrease of rate of proliferation, KG-1a cells: IC20 value, 24 and 48 h (time-response), vs control; for rate of cell proliferation, KG-1a cells (in words): concentrations IC10 − IC20 values, 48 h
Procedure: (§2) According to the principle of trypan blue exclusion, viable cells with intact membranes can exclude trypan blue dye, while dead cells with compromised membranes are stained by the trypan blue dye solution. A cell suspension and trypan blue dye solution (0.2%) were mixed, and viable and dead cells were counted under microscope using a hemacytometer. Then, the percentage of viable cells was calculated. KG-1a, EoL-1 and K562 cells were cultured with crude fractional extracts and active pure compounds at various concentrations (10 − 20% growth inhibition; IC10 − IC20 values) of each extract for 48 h, at a 20% growth inhibition (IC20 value) of each extract for 24 and 48 h. Following incubation, cells were harvested, and the total cell number was counted using trypan blue exclusion method. Three independent experiments were plotted as a dose–response curve and compared with the vehicle control. Meanwhile, the total cell number of each cell line after fractional extract and pure compound treatments at 24 and 48 h were calculated and plotted as a time-response curve. Slopes from each graph were considered as the rate of cell proliferation.

EoL-1 cells = assay: Total cell number by trypan blue exclusion, EoL-1 cells; format: cell-based, human; settings: IC20 value, 48 h, vs vehicle control
Procedure: as §2

WT1 protein [3] = assay: WT1 protein expression by Western blot in EoL-1 cells; format: cell-based, human; settings: IC20 value, 48 h, vs vehicle control
Procedure: as §1

KG-1a cells [4] = assay: Total cell number by trypan blue exclusion, KG-1a cells; format: cell-based, human; settings: IC20 value, 48 h, vs vehicle control
Procedure: as §2

WT1 protein [5] = assay: WT1 protein expression by Western blot in K562 cells; format: cell-based, human; settings: IC20 value, 48 h, vs vehicle control
Procedure: as §1

| Compound | DPPH• inhibition (DPPH assay) | suppression of WT1 protein expression in KG-1a cells (WT1 protein [1]) [%] | wound width (MCF-7 cells) [%] | TEAC (ABTS antioxidant activity) (ABTS assay) | EC1 (FRAP antioxidant activity) (FRAP assay) | NO inhibition (NO) | decrease of rate of proliferation, KG-1a cells (KG-1a cells [2]) | rate of cell proliferation, KG-1a cells (in words) (KG-1a cells [2]) | decrease of total cell number, EoL-1 cells (EoL-1 cells) [%] | suppression of WT1 protein expression in EoL-1 cells (WT1 protein [3]) [%] | suppression of WT1 protein expression in EoL-1 cells (WT1 protein [3]; listed as resveratrol) [%] | suppression of WT1 protein expression in KG-1a cells (WT1 protein [1]; listed as resveratrol) [%] | decrease of total cell number, KG-1a cells (KG-1a cells [4]) [%] | suppression of WT1 protein expression in K562 cells (WT1 protein [5]) [%] |
| --- | --- | --- | --- | --- | --- | --- | --- | --- | --- | --- | --- | --- | --- | --- |
| O=c1c(O)c(-c2ccc(O)cc2O)oc2cc(O)cc(O)c12 [Morin, 2’,3,4’,5,7-pentahydroxyflavonone] | significantly more potent than ascorbic acid | 32.89 ± 8.76 | 60.5 ± 3.8 | comparable TEAC and EC1 values with those of ascorbic acid | comparable TEAC and EC1 values with those of ascorbic acid | – | – | – | – | – | – | – | – | – |
| O=c1c(O)c(-c2ccc(O)c(O)c2)oc2cc(O)cc(O)c12 [Quercetin, quercetin] | significantly more potent than ascorbic acid | – | – | comparable TEAC and EC1 values with those of ascorbic acid | comparable TEAC and EC1 values with those of ascorbic acid | potent inhibitory activities against NO; also recorded: significantly more potent inhibition of IL-2, TNF-α, and NO than dexamethasone | significantly decreasing rates of proliferation | significantly decreasing rate of cell proliferation | 23.25 | – | – | – | – | – |
| Oc1ccc(/C=C/c2cc(O)cc(O)c2)cc1 [Resveratrol, resveratrol] | – | – | 32.8 ± 0.7 | – | – | – | 86.02% | significantly decreasing rate of cell proliferation | 74.14 | 76.73 | 76.73 ± 4.08 | 60.27 ± 11.44 | 39.23 | 53.78 ± 4.28 |
